Assay results: patent US6608045B2 (priority 1998, dated 2003)

Assays:
[1] = system: cell surface antigen CD69; experiment: Activation-induced CD69 expression in Jurkat T cells, flow cytometry; type: cell-based, human; conditions: 1 μg/ml, OKT-3 + PMA, 20 hours
Description: 1 μg/ml of tautomycetin was added to 1×10^6 of Jurkat T cells, which were stimulated by 10 μg/ml of OKT-3 monoclonal antibody and 50 ng/ml of PMA, and the cells were incubated for 20 hours. Monoclonal antibody against CD69(anti-CD69 mAb) was treated to the cells to carry out color-reaction and analysed by flow cytometry.

[2] = system: T-cell proliferation in mixed lymphocyte reaction (splenocytes of Balb/C and C57BL/6 mouse); experiment: Mouse mixed lymphocyte reaction (MLR), [3H]-thymidine labelling; type: cell-based; conditions: 72 hours + 24 hours [3H]-thymidine
Description: After the mixed cell culture was incubated at 37° C. for 72 hours, under an environment of 5% CO2, [^3H]-thymidine was added to the plate and further incubated for 24 hours to investigate the suppressive activity against T-cell proliferation by the degree of thymidine labelling.

[3] = system: tyrosine phosphorylation of intracellular proteins (BcR signal transduction); experiment: Immunoblot of tyrosine phosphorylation in CD8-Igα/CD8-Igβ transfected BJAB cell (human B-cell); type: cell-based; conditions: BJAB transfectants, stimulation by monoclonal antibody against BcR
[4] = system: interleukin-2 receptor(IL-2R); experiment: Activation-induced interleukin-2 receptor expression on Jurkat T cell surface, flow cytometry; type: cell-based, human; conditions: 1 μg/ml, OKT-3 + PMA
Description: To investigate the suppressive activity against interleukin-2 receptor(IL-2R) expression on the cell surface, 1×10^6 of Jurkat T cell treated with 1 μg/ml of tautomycetin was activated by OKT-3 monoclonal antibody and PMA, and color-developed by the aid of monoclonal antibody against IL-2R(anti IL-2R mAb), then analysed by flow cytometry.

[5] = system: IL-2 expression; experiment: IL-2 expression reporter (NF-AT/IL-2 promoter β-galactosidase) in transfected Jurkat T cells stimulated by OKT-3 (TcR-mediated) and PMA; type: cell-based, human
Description: Monoclonal antibody OKT-3, which binds specifically to ε-chain of T-cell receptor(TcR)-CD3 complex, induces IL-2 expression and specific T-cell proliferation by activating TcR-mediated signal transduction. In this regard, the suppressive activity of tautomycetin against the expression of IL-2 stimulated via TcR was investigated: First, 10 μg of goat anti-mouse IgG was immobilized on 96-well microplate in an ELISA coating buffer(pH 9.0) and 10 μg of monoclonal antibody OKT-3 was also immobilzed thereon. To monitor the IL-2 expression level indirectly, transfected Jurkat T cells where the expression of β-galactosidase is driven by the multiple NF-AT(nuclear transcriptional activator) binding sites upstream of minimal IL-2 promoter, were employed and the cells were resuspended in RPMI medium containing 10% fetal bovine serum, 2 mM L-glutamine and 100 unit of penicillin. 1×10^5 of transfected Jurkat T cells were aliquoted to 96-well microplate, and incubated for 24 hours in a medium containing 64 nM PMA while changing the concentration of tautomycetin. Then, centrifugation was carried out to harvest cells, and washed twice with PBS. 150 μl of β-galactosidase detecting solution(containing 0.1% Triton X-100, 200 mM sodium phosphate, 2 mM MgCl2, 100 mM β-mercaptoethanol, 1.33 mg/ml ONPG) was added to each well and after 1 hour, 100 μl of 1M sodium carbonate was added to stop the reaction and measured the suppressive activity of tautomycetin against the IL-2 expression by spectrophotometry at a wavelength of 410 nm.

[6] = system: Aspergillus niger; experiment: Antimicrobial activity by agar diffusion method (paper disc); type: cell-based
Description: The antimicrobial activity of tautomycetin prepared in Example 3 was measured by agar diffusion method. 1×10^8/ml of spore suspension of Aspergillus niger was mixed with glucose-yeast extract agar medium and a paper disc containing tautomycetin was put on the agar plate.

[7] = system: IL-2 expression; experiment: IL-2 expression reporter (NF-AT/IL-2 promoter β-galactosidase) in transfected Jurkat T cells stimulated by PMA and ionomycin; type: cell-based, human
Excerpt: The suppressive activity of tautomycetin against the expression of interleukin-2(IL-2), which plays a crucial role in the immune system, was investigated by treating T-cell proliferating factors such as phorbol-12-myristate-13-acetate(PMA) and ionomycin, which activate protein kinase C to increase the level of diacylglycerol and Ca^2+ in cells: First, to monitor the IL-2 expression level indirectly, transfected Jurkat T cells where the expression of β-galactosidase is driven by the multiple NF-AT(nuclear transcriptional activator) binding sites upstream of minimal IL-2 promoter, were employed and the cells were resuspended in RPMI medium containing 10% fetal bovine serum, 2 mM L-glutamine and 100 unit of penicillin. 1×10^5 of transfected Jurkat T cells were aliquoted to 96-wll microplate, and incubated for 24 hours with the 4 μM ionomycin and 64 nM PMA, while changing the concentration of tautomycetin. Then, centrifugation was carried out to harvest cells, and washed twice with phosphate-buffered saline(PBS). 150 μl of β-galactosidase detecting solution(containing 0.1% Triton X-100, 200 mM sodium phosphate, 2 mM MgCl2, 100 mM β-mercaptoethanol, 1.33 mg/ml ONPG) was added to each well and incubated at 37° C. for 1 hour. 100 μl of 1M sodium carbonate was added to stop the reaction and measured the suppressive activity of tautomycetin against the IL-2 expression by spectrophotometry at a wavelength of 410 nm.

[8] = system: tyrosine phosphorylation of intracellular proteins involved in TcR-mediated signal transduction; experiment: Immunoblot of tyrosine phosphorylation in CD8-ζ transfected Jurkat T cells stimulated by OKT-8; type: cell-based, human; conditions: 1 μg/ml, 10 hours, Jurkat T CD8-ζ transfectants, OKT-8 stimulation
Description: The suppressive activity of tautomycetin against the signal transduction around the membrane was investigated by determining the suppressive activity against the tyrosine phosphorylation of intracellular protein: To analyse the pathway of signal transduction mediated by TcR, Jurkat T cells which were transfected with a recombinant gene fragment, CD8-ζ chimeric DNA, harboring the ecto+transmembrane domain of CD8 and endomembrane domain of CD3-ζ chain, were cultured in RPMI medium containing 10% fetal bovine serum, 2 mM L-glutamine and 100 unit of penicillin. 1 μg/ml of tautomycetin was treated to 1×10^6 of Jurkat T cell transfectants and incubated for 10 hours, then centrifugation was carried out to harvest cells. The cells were washed twice with PBS and then stimulated by 10 μg/ml of OKT-8 and 10 μg/ml of the rabbit anti-mouse IgG antibody. The tyrosine phosphorylation was detected by immunoblot where the protein was isolated by 12.5% SDS-polyacrylamide gel electrophoresis and transferred to Immunobilon-P membrane(Millipore, U.S.A.). The phosphorylated tyrosine residue of intracellular protein or ZAP-70 protein was detected by the treatment of monoclonal antibody 4G10(Upstate Biotech Inc., U.S.A) or monoclonal antibody against ZAP-70(Zymed, U.S.A.), respectively. […]

[9] = system: graft rejection in heart transplantation; experiment: Heart graft experiment (Lewis rat donor, Wistar rat recipient), heartbeat by palpation; type: in vivo

## tautomycetin
[1]
  activation-induced expression of cell surface antigen CD69: suppresses the expression of cell surface antigen CD69
[2]
  IC50: 43 nM
[3]
  tyrosine phosphorylation of intracellular proteins in B-cell: does not inhibit
[4]
  activation-induced expression of IL-2R on the cell surface: suppresses the expression of IL-2R on the cell surface more effectively than cyclosporin A
[5]; Jurkat T transfectants, immobilized OKT-3 and 64 nM PMA, 24 hours
  IC50, suppressive activity against IL-2 expression: 6.6e-06 ng/mL
[5]; OKT-3 + PMA
  suppressive activity against IL-2 expression relative to cyclosporin A: 100 times
[5]; concentration 10^−7 μg/ml, OKT-3 + PMA
  Suppressive Activity against IL-2 expression: 74.8
[5]; concentration 10^−8 μg/ml, OKT-3 + PMA
  Suppressive Activity against IL-2 expression: 46.8
[5]; concentration 10^−9 μg/ml, OKT-3 + PMA
  Suppressive Activity against IL-2 expression: 37.5
[6]; 48 hours at 28° C., size of growth inhibitory zone
  minimum inhibitory concentration(MIC): less than 1 μg/ml
[6]; MIC comparison
  antimicrobial strength relative to cyclosporin A: 10 times
[7]; Jurkat T transfectants, 4 μM ionomycin and 64 nM PMA, 24 hours
  IC50, suppressive activity against IL-2 expression: 3 ng/mL
[7]; PMA + ionomycin
  suppressive activity against IL-2 expression relative to cyclosporin A: 6 times
[7]; concentration 0.001 μg/ml, PMA + ionomycin
  Suppressive Activity against IL-2 expression: 12.8
[7]; concentration 0.01 μg/ml, PMA + ionomycin
  Suppressive Activity against IL-2 expression: 83.9
[7]; concentration 0.1 μg/ml, PMA + ionomycin
  Suppressive Activity against IL-2 expression: 88
[7]; concentration 1 μg/ml, PMA + ionomycin
  Suppressive Activity against IL-2 expression: 98
[8]
  tyrosine phosphorylation of intracellular proteins (TcR-mediated signal transduction), except for ZAP-70: inhibited
[9]; i.p., injection formula of Example 11
  concentration sustaining the heart movement, as fraction of cyclosporin A: 1/50
[9]; i.v., injection formula of Example 12
  concentration sustaining the heart movement, as fraction of cyclosporin A: 1/500
